Test results: publication PMC12675575, “A BRET biosensor for measuring uncompetitive engagement of PRMT5 complexes in cells” (Nature Communications, 2025)
pEC50: −log10 of the molar value. Values joined by “and” are separate entries in the source; they are usually repeats but may differ in a detail not shown here. Equal values may be shown once.

Assays:
[1] = biological target: T1, NL-PRMT5 (Homo sapiens, UniProt O14744); assay: CBH-002 affinity curve, HEK293, NL-PRMT5 fusion with empty carrier DNA (no WDR77); type: cell-based; set-up: unit not given here; settings: Figure S2A NL-PRMT5, log([CBH-002])
T1 construct: host or cells: HEK293
T1 sequence (O14744 whole entry, the tested form may be a part): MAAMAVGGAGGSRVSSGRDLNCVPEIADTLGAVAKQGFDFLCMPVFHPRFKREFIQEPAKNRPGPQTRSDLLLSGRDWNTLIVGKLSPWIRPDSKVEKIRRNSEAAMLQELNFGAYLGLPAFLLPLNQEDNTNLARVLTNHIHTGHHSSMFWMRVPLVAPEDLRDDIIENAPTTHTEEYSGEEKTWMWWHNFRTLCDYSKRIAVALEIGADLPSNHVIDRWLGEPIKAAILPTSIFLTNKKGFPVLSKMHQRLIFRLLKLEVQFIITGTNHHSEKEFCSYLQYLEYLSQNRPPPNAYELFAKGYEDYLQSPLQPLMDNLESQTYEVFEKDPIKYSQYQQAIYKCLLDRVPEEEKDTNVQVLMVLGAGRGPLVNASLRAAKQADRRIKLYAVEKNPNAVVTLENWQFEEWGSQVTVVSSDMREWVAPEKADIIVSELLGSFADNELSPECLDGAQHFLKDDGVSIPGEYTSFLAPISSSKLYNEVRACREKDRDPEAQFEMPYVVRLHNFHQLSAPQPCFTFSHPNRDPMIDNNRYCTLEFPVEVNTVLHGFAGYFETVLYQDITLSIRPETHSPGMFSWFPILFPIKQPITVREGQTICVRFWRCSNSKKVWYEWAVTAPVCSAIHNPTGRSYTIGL
Procedure: (§1) HEK293 cells (ATCC) were cultured in DMEM (Thermo Fisher) + 10% (v/v) FBS (Seredigm), and HCT116 cells (Horizon Discovery, #PAR-034 and #R02-033) were cultured in McCoy’s 5A (Thermo Fisher) + 10% FBS, with incubation in a humidified, 37 °C/5% CO2 incubator. Cells were split 1–3 days prior to performing experiments and used at roughly 80% confluency. […] Cells were transfected according to the manufacturer’s protocol using FuGENE HD (Promega). NanoLuc fusion DNA was diluted into Transfection Carrier DNA (Promega) in Opti-MEM at a ratio of 1:9 (mass/mass), and FuGENE HD was added at a ratio of 1:3 (μg DNA:μL lipid). For experiments using WDR77, untagged WDR77 DNA (Promega) was used in place of Carrier DNA. Formed complexes were combined with cells resuspended to a density of 2 × 10^5 cells/mL in Opti-MEM + 1% FBS at a ratio of 1:20 (vol:vol). Cells were plated into a flask and incubated at 37 °C in a humidified 5% CO2 atmosphere for 18–24 h, before being lifted and seeded into 96-well non-binding surface-treated plates (Corning). Cells were seeded at a density of 2 × 10^5 cells/mL in Opti-MEM + 1% FBS in 100 μL (96-well). The BRET probe CBH-002 was prepared first as a 100× stock in 100% DMSO (Sigma) and then diluted to a 20× stock in NanoBRET Tracer Dilution buffer (Promega). Test compounds were prepared as 1000× stocks in 100% DMSO and diluted to 10× stocks in Opti-MEM to prepare working stocks. […] NanoBRET Complete 3x Substrate was prepared by combining Nano-Glo Substrate and Extracellular NanoLuc Inhibitor in Opti-MEM, according to the manufacturer’s protocol (Promega). NanoBRET Complete 3× Substrate was added to cells and plates were measured on either a PheraSTAR FSX equipped with 450 nm (donor) and 610 nm (acceptor) filters, or a GloMAX Discover equipped with 450/8 nm BP (donor) and 600 nm LP (acceptor) filters, using a 0.3 s integration time.
(§2) EC50 values were obtained by fitting the BRET probe and compound affinity curves to a sigmoidal four-parameter fit model in Graphpad Prism:1 Y=Ymin+Ymax−Ymin/1+10^LogEC50−Xh where h is the Hill Slope.

[2] = biological target: T2, RIPK2 (Homo sapiens, UniProt O43353); assay: CBH-002 affinity curve, HEK293, RIPK2-NL fusion (cytosolic control); type: cell-based; set-up: BRET, CBH-002 + DMSO / BRET, CBH-002 + GSK3326595: unit not given here; settings: for BRET, CBH-002 + DMSO / BRET, CBH-002 + GSK3326595: Figure S2E RIPK2-NL, log([CBH-002])
T2 construct: host or cells: HEK293
T2 sequence (O43353 whole entry, the tested form may be a part): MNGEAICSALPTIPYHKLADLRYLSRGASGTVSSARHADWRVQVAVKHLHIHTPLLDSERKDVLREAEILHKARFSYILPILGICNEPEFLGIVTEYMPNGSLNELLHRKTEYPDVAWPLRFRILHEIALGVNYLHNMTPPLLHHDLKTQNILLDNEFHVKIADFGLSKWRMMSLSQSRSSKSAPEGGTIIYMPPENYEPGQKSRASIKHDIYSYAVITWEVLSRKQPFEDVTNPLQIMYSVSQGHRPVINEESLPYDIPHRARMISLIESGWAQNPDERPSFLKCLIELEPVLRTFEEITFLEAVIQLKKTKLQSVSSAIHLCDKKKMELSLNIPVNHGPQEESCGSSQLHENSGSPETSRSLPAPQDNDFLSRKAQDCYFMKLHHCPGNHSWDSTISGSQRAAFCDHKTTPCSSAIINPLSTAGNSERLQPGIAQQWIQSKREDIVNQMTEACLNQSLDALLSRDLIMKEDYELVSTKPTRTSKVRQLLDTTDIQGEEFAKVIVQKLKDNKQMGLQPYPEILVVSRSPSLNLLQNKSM
Procedure: as §1, §2

[3] = biological target: NLuc-PRMT5 (Homo sapiens, UniProt O14744); assay: SAM titration against CBH-002 in HEK293 cell lysate (linear range of SAM detection); type: binding; set-up: host or cells: HEK293 (live cells; digitonin lysate for the SAM titration); settings: for pEC50: Figure S3B; for BRET signal, CBH-002 titration (Figure S3A): Log[CBH-002]
NLuc-PRMT5, sequence (O14744 whole entry): as the sequence (O14744 whole entry, the tested form may be a part) above
NLuc-PRMT5, sequence (Q9BQA1 whole entry partner): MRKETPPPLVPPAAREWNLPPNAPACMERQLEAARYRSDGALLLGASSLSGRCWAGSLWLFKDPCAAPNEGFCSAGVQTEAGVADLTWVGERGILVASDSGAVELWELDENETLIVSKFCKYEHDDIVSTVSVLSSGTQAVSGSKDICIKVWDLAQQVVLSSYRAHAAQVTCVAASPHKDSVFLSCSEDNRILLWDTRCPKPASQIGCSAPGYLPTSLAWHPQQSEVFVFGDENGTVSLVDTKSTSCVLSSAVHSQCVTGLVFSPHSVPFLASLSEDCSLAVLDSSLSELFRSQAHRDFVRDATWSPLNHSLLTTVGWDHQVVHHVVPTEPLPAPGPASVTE
Procedure: To determine the linear range of SAM detection, HEK293 cells expressing NLuc-PRMT5 were lysed by addition of a 10x digitonin solution (Sigma), 500 µg/mL in Opti-MEM) and treated with a 1 mM, 4-fold, 11 pt dose-response series of SAM (Sigma) and a 1 µM 2-fold, 8 pt dose-response series of CBH-002. Lysate was incubated at RT for 30 min prior to reading BRET. Data was normalized using Eq. (2) above, with BRETMIN = BRET signal at lowest [CBH-002] + 0 µM SAM, and BRETMAX = BRET signal at 1 µM CBH-002 + 1 mM SAM. Data were fit using Eq. (3), and CBH-002 EC50 was plotted against [SAM] to determine the linear range of detection.

Structure (SMILES): O=C(CCc1ccc2n1[B-](F)(F)[N+]1=C(c3ccc[nH]3)C=CC1=C2)NCCCCC(=O)N1CCC(Nc2cc(C(=O)NC[C@H](O)CN3CCc4ccccc4C3)ncn2)CC1 [CBH-002]
- BRET, CBH-002 + DMSO ([1]; uM 0.04576): 20.5721 and 25.8738 and 18.388
- BRET, CBH-002 + GSK3326595 ([1]; uM 0.04576): 1.809 and 2.429 and 2.181
- BRET, CBH-002 + DMSO ([1]; uM 0.52288): 24.1037 and 25.1393 and 24.5832
- BRET, CBH-002 + GSK3326595 ([1]; uM 0.52288): 4.538 and 4.814 and 4.399
- BRET, CBH-002 + DMSO ([1]; uM 1): 34.4603 and 46.2115 and 36.0512
- BRET, CBH-002 + GSK3326595 ([1]; uM 1): 12.5442 and 11.3355 and 11.5115
- BRET, CBH-002 + DMSO ([1]; uM -0.43136): 17.1332 and 19.3006 and 16.5836
- BRET, CBH-002 + GSK3326595 ([1]; uM -0.43136): 1.767 and 1.79 and 1.327
- BRET, CBH-002 + DMSO ([1]; uM -0.90849): 13.1405 and 15.4187 and 12.8329
- BRET, CBH-002 + GSK3326595 ([1]; uM -0.90849): 0.7756 and 0.9895 and 1.006
- BRET, CBH-002 + DMSO ([1]; uM -1.20952): 13.3172 and 13.6477 and 14.1021
- BRET, CBH-002 + GSK3326595 ([1]; uM -1.20952): 0.6778 and 0.9377 and 0.9652
- BRET, CBH-002 + DMSO ([1]; uM -1.68664): 10.4832 and 12.4293 and 10.2869
- BRET, CBH-002 + GSK3326595 ([1]; uM -1.68664): 1.144 and 1.071 and 1
- BRET, CBH-002 + DMSO ([1]; uM -1.98767): 7.5477 and 8.773 and 6.804
- BRET, CBH-002 + GSK3326595 ([1]; uM -1.98767): 0.4652 and 0.5599 and 0.5695
- BRET, CBH-002 + DMSO ([1]; uM -2.46479): 4.066 and 4.851 and 4.778
- BRET, CBH-002 + DMSO ([1]; uM -2.94191): 2.639 and 2.5785 and 2.4252
- BRET, CBH-002 + DMSO ([2]; uM 0.04576): 1.852 and 1.939 and 2.142
- BRET, CBH-002 + GSK3326595 ([2]; uM 0.04576): 1.842 and 1.813 and 1.9392
- BRET, CBH-002 + DMSO ([2]; uM 0.52288): 5.1141 and 4.646 and 5.258
- BRET, CBH-002 + GSK3326595 ([2]; uM 0.52288): 4.515 and 4.266 and 4.4734
- BRET, CBH-002 + DMSO ([2]; uM 1): 11.7522 and 11.9286 and 12.3306
- BRET, CBH-002 + GSK3326595 ([2]; uM 1): 11.5342 and 11.3369 and 11.377
- BRET, CBH-002 + DMSO ([2]; uM -0.43136): 0.8543 and 0.8172 and 0.8282
- BRET, CBH-002 + GSK3326595 ([2]; uM -0.43136): 0.5912 and 0.5546 and 0.9723
- CBH-002 engagement at RIPK2 ([2]; HEK293, RIPK2-NL): did not show engagement
- pEC50 ([3]; CBH-002 EC50 at [SAM] 0 uM): 5.97
- pEC50 ([3]; CBH-002 EC50 at [SAM] 0.001 uM): 5.92
- pEC50 ([3]; CBH-002 EC50 at [SAM] 0.004 uM): 6.14
- pEC50 ([3]; CBH-002 EC50 at [SAM] 0.06 uM): 6.63
- pEC50 ([3]; CBH-002 EC50 at [SAM] 250 uM): 8.00
- pEC50 ([3]; CBH-002 EC50 at [SAM] 1000 uM): 8.00
- BRET signal, CBH-002 titration (Figure S3A) ([3]; uM 0.00, [SAM] 0 uM): 59.75 and 46.60 and 39.12
- BRET signal, CBH-002 titration (Figure S3A) ([3]; uM 0.00, [SAM] 0.001 uM): 52.48 and 47.57 and 38.98
- BRET signal, CBH-002 titration (Figure S3A) ([3]; uM 0.00, [SAM] 0.004 uM): 78.50 and 49.28 and 41.20
- BRET signal, CBH-002 titration (Figure S3A) ([3]; uM 0.00, [SAM] 0.06 uM): 102.12 and 63.12 and 56.12
- BRET signal, CBH-002 titration (Figure S3A) ([3]; uM 0.00, [SAM] 250 uM): 116.71 and 100.65 and 98.69
- BRET signal, CBH-002 titration (Figure S3A) ([3]; uM 0.00, [SAM] 1000 uM): 100.00
- BRET signal, CBH-002 titration (Figure S3A) ([3]; uM -0.60, [SAM] 0 uM): 35.92 and 26.69 and 20.78
- BRET signal, CBH-002 titration (Figure S3A) ([3]; uM -0.60, [SAM] 0.001 uM): 38.65 and 26.89 and 21.61
- BRET signal, CBH-002 titration (Figure S3A) ([3]; uM -0.60, [SAM] 0.004 uM): 42.58 and 27.46 and 22.13
- BRET signal, CBH-002 titration (Figure S3A) ([3]; uM -0.60, [SAM] 250 uM): 110.40 and 94.49 and 89.50
- BRET signal, CBH-002 titration (Figure S3A) ([3]; uM -0.60, [SAM] 1000 uM): 106.63 and 91.94 and 90.40
- BRET signal, CBH-002 titration (Figure S3A) ([3]; uM -1.20, [SAM] 0 uM): 18.29 and 13.11 and 9.32
- BRET signal, CBH-002 titration (Figure S3A) ([3]; uM -1.20, [SAM] 250 uM): 100.06 and 80.70 and 74.62
- BRET signal, CBH-002 titration (Figure S3A) ([3]; uM -1.20, [SAM] 1000 uM): 101.04 and 80.00 and 77.33
- BRET signal, CBH-002 titration (Figure S3A) ([3]; uM -1.81, [SAM] 250 uM): 80.32 and 48.77 and 48.32
- BRET signal, CBH-002 titration (Figure S3A) ([3]; uM -1.81, [SAM] 1000 uM): 90.24 and 46.55 and 49.90
